Measured values from BindingDB's records for doi:10.1111/cbdd.12546 (Zhejiang University of Technology, 2015).

Molecular target: Glycogen synthase kinase-3 beta (Homo sapiens, UniProt P49841)
Test: Kinase Assay

Chain of Glycogen synthase kinase-3 beta (P49841 whole entry): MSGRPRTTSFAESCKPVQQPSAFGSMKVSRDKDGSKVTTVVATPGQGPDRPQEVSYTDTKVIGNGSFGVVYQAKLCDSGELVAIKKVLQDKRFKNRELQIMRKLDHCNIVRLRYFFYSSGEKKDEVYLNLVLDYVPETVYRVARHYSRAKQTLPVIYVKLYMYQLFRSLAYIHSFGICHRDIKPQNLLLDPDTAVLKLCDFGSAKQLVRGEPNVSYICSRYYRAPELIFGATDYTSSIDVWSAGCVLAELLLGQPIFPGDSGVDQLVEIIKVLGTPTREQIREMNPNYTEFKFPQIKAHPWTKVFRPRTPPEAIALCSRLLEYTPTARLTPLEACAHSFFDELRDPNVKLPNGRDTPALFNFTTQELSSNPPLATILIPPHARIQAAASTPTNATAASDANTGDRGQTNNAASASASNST

Structure (SMILES) | IC50 [nM]
Cc1cccc2c(C3=C(c4coc5ncccc45)C(=O)NC3=O)cn(C)c12 [3-(1,7-dimethyl-1H-indol-3-yl)-4-(furo[2,3-b]pyridin-3-yl)-1H-pyrrole-2,5-dione (5c)] | 290
O=C1NC(=O)C(c2cn(CCCn3ccnc3)c3ccccc23)=C1c1coc2ncccc12 [3-(1-(3-(1H-Imidazol-1-yl)propyl)-1H-indol-3-yl)-4-(furo[2,3-b]pyridin-3-yl)-1H-pyrrole-2,5-dione (5n)] | 210
O=C1NC(=O)C(c2cn(CCCn3ccnc3)c3ccc(Br)cc23)=C1c1coc2ncccc12 [3-(1-(3-(1H-Imidazol-1-yl)propyl)-5-bromo-1H-indol-3-yl)-4-(furo[2,3-b]pyridin-3-yl)-1H-pyrrole-2,5-dione (5o)] | 190
O=C1NC(=O)C(c2cn(CCCn3ccnc3)c3ccc(Cl)cc23)=C1c1coc2ncccc12 [3-(1-(3-(1H-Imidazol-1-yl)propyl)-5-chloro-1H-indol-3-yl)-4-(furo[2,3-b]pyridin-3-yl)-1H-pyrrole-2,5-dione (5p)] | 240
C=CCn1cc(C2=C(c3coc4ncccc34)C(=O)NC2=O)c2ccccc21 [3-(1-Allyl-1H-indol-3-yl)-4-(furo[2,3-b]pyridin-3-yl)-1H-pyrrole-2,5-dione (5k)] | 530
CCCCn1cc(C2=C(c3coc4ncccc34)C(=O)NC2=O)c2ccccc21 [3-(1-Butyl-1H-indol-3-yl)-4-(furo[2,3-b]pyridin-3-yl)-1H-pyrrole-2,5-dione (5l)] | 570
Cn1cc(C2=C(c3coc4ncccc34)C(=O)NC2=O)c2cc(Br)ccc21 [3-(5-Bromo-1-methyl-1H-indol-3-yl)-4-(furo[2,3-b]pyridin-3-yl)-1H-pyrrole-2,5-dione (5h)] | 70
Cn1cc(C2=C(c3coc4ncccc34)C(=O)NC2=O)c2cc(Cl)ccc21 [3-(5-Chloro-1-methyl-1H-indol-3-yl)-4-(furo[2,3-b]pyridin-3-yl)-1H-pyrrole-2,5-dione (5f)] | 170
Cn1cc(C2=C(c3coc4ncccc34)C(=O)NC2=O)c2cc(F)ccc21 [3-(5-Fluoro-1-methyl-1H-indol-3-yl)-4-(furo[2,3-b]pyridin-3-yl)-1H-pyrrole-2,5-dione (5d)] | 390
Cn1cc(C2=C(c3coc4ncccc34)C(=O)NC2=O)c2ccc(Br)cc21 [3-(6-Bromo-1-methyl-1H-indol-3-yl)-4-(furo[2,3-b]pyridin-3-yl)-1H-pyrrole-2,5-dione (5i)] | 1940
Cn1cc(C2=C(c3coc4ncccc34)C(=O)NC2=O)c2ccc(Cl)cc21 [3-(6-Chloro-1-methyl-1H-indol-3-yl)-4-(furo[2,3-b]pyridin-3-yl)-1H-pyrrole-2,5-dione (5g)] | 1840
Cn1cc(C2=C(c3coc4ncccc34)C(=O)NC2=O)c2ccc(F)cc21 [3-(6-Fluoro-1-methyl-1H-indol-3-yl)-4-(furo[2,3-b]pyridin-3-yl)-1H-pyrrole-2,5-dione (5e)] | 560
O=C1NC(=O)C(c2cn(CCCO)c3ccccc23)=C1c1coc2ncccc12 [3-(Furo[2,3-b]pyridin-3-yl)-4-(1-(3-hydroxypropyl)-1H-indol-3-yl)-1H-pyrrole-2,5-dione (5q)] | 310
O=C1NC(=O)C(c2cn(CCCN3CCOCC3)c3ccccc23)=C1c1coc2ncccc12 [3-(Furo[2,3-b]pyridin-3-yl)-4-(1-(3-morpholinopropyl)-1H-indol-3-yl)-1H-pyrrole-2,5-dione (5r)] | 690
CC(C)n1cc(C2=C(c3coc4ncccc34)C(=O)NC2=O)c2ccccc21 [3-(Furo[2,3-b]pyridin-3-yl)-4-(1-isopropyl-1H-indol-3-yl)-1H-pyrrole-2,5-dione (5m)] | 190
Cn1cc(C2=C(c3coc4ncccc34)C(=O)NC2=O)c2ccccc21 [3-(Furo[2,3-b]pyridin-3-yl)-4-(1-methyl-1H-indol-3-yl)-1H-pyrrole-2,5-dione (5b)] | 280
O=C1NC(=O)C(c2coc3ncccc23)=C1c1c[nH]c2ccccc12 [3-(Furo[2,3-b]pyridin-3-yl)-4-(1H-indol-3-yl)-1H-pyrrole-2,5-dione (5a)] | 1780
COc1ccc2c(c1)c(C1=C(c3coc4ncccc34)C(=O)NC1=O)cn2C [3-(Furo[2,3-b]pyridin-3-yl)-4-(5-methoxy-1-methyl-1H-indol-3-yl)-1H-pyrrole-2,5-dione (5j)] | 1310
